Laboratory results reported in paper PMC5116089, “Sulfheme formation during homocysteine S-oxygenation by catalase in cancers and neurodegenerative diseases” (Nature Communications, 2016).
Values belong to the compound of their own block, whether it stands above or below them.

Molecular target: T1, Bovine liver catalase (Bos taurus, UniProt P00432)
T1 construct: Bovine liver catalase was also purchased from Sigma-Aldrich; purchased Sigma-Aldrich; host or cells: bovine liver
T1 sequence (P00432 2-527 limits assumed): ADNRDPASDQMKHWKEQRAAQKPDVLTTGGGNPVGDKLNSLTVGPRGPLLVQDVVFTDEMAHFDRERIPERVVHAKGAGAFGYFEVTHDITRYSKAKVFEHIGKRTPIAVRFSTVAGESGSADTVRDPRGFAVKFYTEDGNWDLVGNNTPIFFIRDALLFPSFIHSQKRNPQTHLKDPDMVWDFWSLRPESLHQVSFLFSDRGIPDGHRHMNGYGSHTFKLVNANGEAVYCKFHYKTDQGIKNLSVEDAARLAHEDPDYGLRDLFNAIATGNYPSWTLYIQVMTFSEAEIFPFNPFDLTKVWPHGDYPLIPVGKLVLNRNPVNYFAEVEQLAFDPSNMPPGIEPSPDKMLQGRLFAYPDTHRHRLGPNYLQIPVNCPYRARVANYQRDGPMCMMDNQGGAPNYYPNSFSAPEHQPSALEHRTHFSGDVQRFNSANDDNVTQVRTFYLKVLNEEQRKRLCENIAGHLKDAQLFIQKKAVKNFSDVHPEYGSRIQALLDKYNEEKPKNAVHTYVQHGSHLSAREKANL
Experiment: Ultraviolet-visible spectral changes and HPLC-MS of extracted heme after reaction of CAT with thiols
Assay type: biochemical
Description: Ultraviolet–visible spectra were recorded on a Cary 300 Scan or an Uvikon 941 spectrophotometer equipped with a temperature equilibrating water bath (±1 °C). Spectral changes over time were recorded when CAT was incubated with L-HCys (0.2 or 2 mM), L-Cys (0.2, 2 or 9 mM) or GSH (1 or 30 mM) at 25 °C in a 1 ml quartz cuvette containing a solution of CAT (2.7–5.9 μM) in 50 mM KPi, pH 7.4±1 mM DTPA. Due to half-site reactivity of biological thiols with CAT, the data were recorded versus a blank containing half the concentrations of CAT used in the experiments, that is, a solution of 1.35–2.95 μM CAT in 50 mM KPi at pH 7.4±1 mM DTPA. Reactions were initiated by addition of the thiol-containing compounds. Comparative kinetic studies were performed by incubating CAT ([…] in the experiment, 1.35–1.5 μM in the blank) with 2 mM L-HCys in 50 mM KPi, pH 7.4, 1 mM DTPA with or without […], 5,5-dimethyl-1,3-cyclohexanedione (dimedone, 4 mM), BCN (0.1 mM) or SOD, 40 U). All the experiments were performed at least in duplicate.
HPLC–MS or –HRMS spectra of the prosthetic heme-iron group were recorded on a Thermo-Finnigan Surveyor or a Thermos Fisher Accela equipped with an XTerra MS C18 3.5 μm (2.1 × 50 mm) and a pre-guard column coupled to an ESI LCQ Advantage or an Exactive orbitrap spectrometer, respectively. The prosthetic heme group was extracted on ice by incubating a solution of CAT (5–8 μM) with 1.65 volume of 50 mM Gly-HCl pH 2.0 and 2.65 vol of butan-2-one kept a −20 °C. After vigorous mixing and a short centrifugation step (13,000 r.p.m., 4 °C, 30 s), the upper organic phase was quickly removed and mixed with a solution of 2 M imidazole (10% v/v) to stabilize the extracted cofactor and permit analysis. […] Control experiments (CAT, thiol-compounds and additives alone as well CAT and additives or thiol-compounds and additives) were performed in each instance and analysed in parallel.

Structure (SMILES): N[C@@H](CS)C(=O)O [Cys, cysteine]
heme-iron species formed from CAT (physiological concentration of Cys (200 μM) in the presence of iron, no DTPA): only leads to the reversible formation of compound II

heme-iron species formed from CAT (GSH (30 mM)): compound II formation was only observed
Structure (SMILES): N[C@@H](CCC(=O)N[C@@H](CS)C(=O)NCC(=O)O)C(=O)O [GSH, glutathione]

Structure (SMILES): NC(CCS)C(=O)O (stereo not drawn) [HCys, homocysteine]
heme-iron species formed from CAT (2 mM HCys, 1 mM DTPA, pH 7.4, 25 °C): induces the production of a sulfheme species
